# Test results as given in patent publication US10376520B2, “Methods for the treatment of cardiovascular disorders” (Galapagos NV, priority 2015, dated 2019).
# Tested on: RA patients
# Assay: Plasma Lecithin-Cholesterol Acyltransferase (LCAT) activity, Study 4
# Format: in vivo, human
# Settings: for LCAT level, 4 weeks CFB: 4 weeks change from baseline
# Procedure: Randomized double-blind, placebo-controlled add on study in subjects with active RA who have an inadequate response to MTX monotherapy, in combination with methotrexate, administered for 4 weeks in the treatment of subjects with active rheumatoid arthritis who have an inadequate response to methotrexate alone.
# Compound 1 (dosed as a [Compound 1:HCl:3H2O]) capsules administered orally in 30 mg, 75 mg, 150 mg, or 300 mg doses per day for 4 weeks.
# LCAT activity was determined using a commercial available assay from Roar Biomedical. In short; incubation media contained 0.5 μL substrate reagent, 4 μL plasma in a final volume of 100 μL assay buffer. Incubations were performed for 1 h at 37° C. in a microtiter plate. Hereafter 200 μL READ reagent was added to the wells and after mixing, 200 μL was transferred to a black fluorescence compatible microplate. The plate was read at 340 nm excitation, 390 nm and 450 nm emission. LCAT activity was expressed as a ratio of the emission at 390 nm and 450 nm. These two wavelengths represent the LCAT substrate hydrolysed and not hydrolysed. An increase in the ratio indicates increased LCAT activity. Catalogue number RB-LCAT, Lot number used 13581392.
smiles,measurement,setting,value
"O=C(Nc1nc2cccc(-c3ccc(CN4CCS(=O)(=O)CC4)cc3)n2n1)C1CC1 [Compound 1, cyclopropanecarboxylic acid {5-[4-(1,1-dioxo-thiomorpholin-4-ylmethyl)-phenyl]-[1,2,4]triazolo[1,5-a]pyridin-2yl}-amide]","LCAT level, 4 weeks CFB",30 mg q.d.,0.4%
same,LCAT activity (emission ratio),"30 mg q.d., baseline",1.9
same,LCAT activity (emission ratio),"30 mg q.d., week 4",2
same,"LCAT level, 4 weeks CFB",75 mg q.d.,4.2%
same,LCAT activity (emission ratio),"75 mg q.d., baseline",2
same,LCAT activity (emission ratio),"75 mg q.d., week 4",2.1
same,"LCAT level, 4 weeks CFB",150 mg q.d.,2.9%
same,LCAT activity (emission ratio),"150 mg q.d., baseline",1.9
same,LCAT activity (emission ratio),"150 mg q.d., week 4",1.9
same,"LCAT level, 4 weeks CFB",300 mg q.d.,4.4%
same,LCAT activity (emission ratio),"300 mg q.d., baseline",2
same,LCAT activity (emission ratio),"300 mg q.d., week 4",2.1
